The record followed here is patent US8119633B2, “Substituted sulfonamide compounds” (Gruenenthal GmbH, priority 2007, dated 2012).

Structures are written as SMILES.

Experiment [1] concerns the target T1, human bradykinin receptor 1 (B1R) (Homo sapiens, UniProt P46663).
T1 construct: expressed in transfected cells; host or cells: CHO K1 cells
T1 sequence (P46663 1-353): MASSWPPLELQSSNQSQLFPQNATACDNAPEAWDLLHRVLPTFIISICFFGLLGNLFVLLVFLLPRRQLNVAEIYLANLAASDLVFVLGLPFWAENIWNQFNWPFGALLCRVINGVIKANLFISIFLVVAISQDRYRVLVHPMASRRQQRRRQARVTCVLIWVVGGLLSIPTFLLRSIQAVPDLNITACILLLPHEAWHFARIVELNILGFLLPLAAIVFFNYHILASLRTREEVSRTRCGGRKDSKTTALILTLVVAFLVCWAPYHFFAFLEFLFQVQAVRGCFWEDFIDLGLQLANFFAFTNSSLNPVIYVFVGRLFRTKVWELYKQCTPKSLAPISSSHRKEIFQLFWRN
Briefly: Functional study on the bradykinin receptor 1 (B1R), human: FLIPR Ca2+ influx assay. Format: cell-based. The conditions noted are these: test substance 10 μM; CHO K1 cells transfected with human B1R; Lys-Des-Arg9-bradykinin at EC80; Ca2+ influx (Fluo-4, FLIPR); read-out: B1R antagonism, human [10 μM] % inhibition. The text has this: Functional Study on the Human Bradykinin Receptor 1 (B1R)
(§1) The agonistic or antagonistic action of substances can be determined on the bradykinin receptor 1 (B1R) of the species human and rat using the following assay. According to this assay, the Ca^2+ influx through the channel is quantified with the aid of a Ca^2+-sensitive dye (Fluo-4 type, Molecular Probes Europe BV, Leiden, Netherlands) using a Fluorescent Imaging Plate Reader (FLIPR, Molecular Devices, Sunnyvale, USA).
(§2) Chinese hamster ovary cells (CHO K1 cells) which have been stably transfected with the human B1R gene (hB1R cells) or with the B1R gene of the rat (rB1R cells) are used. For functional studies, the cells are plated out on black 96-well plates having a clear base (BD Biosciences, Heidelberg, Germany or Greiner, Frickenhausen, Germany) in a density of 20,000-35,000 cells/well. The cells are incubated overnight at 37° C. and with 5% CO2 in culture medium (hB1R cells: Nutrient Mixture Ham's F12, Gibco Invitrogen GmbH, Karlsruhe, Germany or DMEM, Sigma-Aldrich, Taufkirchen, Germany; rB1R cells: D-MEM/F12, Gibco Invitrogen GmbH, Karlsruhe, Germany), with 10 vol. % FBS (fetal bovine serum, Gibco Invitrogen GmbH, Karlsruhe, Germany or PAN Biotech GmbH, Aidenbach, Germany).
(§3) On the following day, the cells are loaded for 60 minutes at 37° C. with 2.13 μM Fluo-4 (Molecular Probes Europe BV, Leiden, Netherlands) in HBSS buffer (Hank's buffered saline solution, Gibco Invitrogen GmbH, Karlsruhe, Germany) with 2.5 mM probenecid (Sigma-Aldrich, Taufkirchen, Germany) and 10 mM HEPES (Sigma-Aldrich, Taufkirchen, Germany). The plates are then washed twice with HBSS buffer, and HBSS buffer additionally containing 0.1% BSA (bovine serum albumin; Sigma-Aldrich, Taufkirchen, Germany), 5.6 mM glucose and 0.05% gelatin (Merck KGaA, Darmstadt, Germany) is added to the plates. After incubation for a further 20 minutes at room temperature, the plates are inserted into the FLIPR for Ca^2+ measurement. Alternatively, washing is carried out with buffer A (15 mM HEPES, 80 mM NaCl, 5 mM KCl, 1.2 mM CaCl2, 0.7 mM MgSO4, 2 g/l glucose, 2.5 mM probenecid) followed by loading with buffer A with added 2.5 μM Fluo-4 and 0.025% Pluronic F127 (Sigma-Aldrich, Taufkirchen, Germany). The cells are then washed twice with buffer A and incubated for 30 minutes at room temperature with buffer A additionally containing 0.05% BSA and 0.05% gelatin and are then inserted into the FLIPR for Ca^2+ measurement.
(§4) The Ca^2+-dependent fluorescence is measured before and after the addition of substances (λex=488 nm, λem=540 nm). Quantification is carried out by measuring the highest fluorescence intensity (FC, fluorescence counts) over time.
(§5) The FLIPR protocol consists of two substance additions. Test substances (10 μM) are first pipetted onto the cells and the Ca^2+ influx is compared with the control (hB1R: Lys-Des-Arg^9-bradykinin>=0.5 nM; rB1R: Des-Arg^9-bradykinin 10 μM). This gives the activation in %, based on the Ca^2+ signal after addition of Lys-Des-Arg^9-bradykinin (>=0.5 nM) or Des-Arg^9-bradykinin (10 μM).
(§6) After 10-20 minutes' incubation, Lys-Des-Arg^9-bradykinin (hB1R) or Des-Arg^9-bradykinin (rB1R) is applied in the concentration of the EC80, and the influx of Ca^2+ is likewise determined.
(§7) Antagonists lead to suppression of the Ca^2+ influx. The % inhibition compared with the maximum achievable inhibition is calculated.
(§8) In order to determine the IC50 value, the substances are added in various concentrations. Duplicate or triplicate determinations (n=2 or n=3) are carried out, and these are repeated in at least one further independent experiment (N>=2).

For experiment [2], the target named is T2, bradykinin receptor 1 (B1R) of the rat (Rattus norvegicus, UniProt P97583).
T2 construct: expressed in transfected cells; host or cells: CHO K1 cells
T2 sequence (P97583 1-337): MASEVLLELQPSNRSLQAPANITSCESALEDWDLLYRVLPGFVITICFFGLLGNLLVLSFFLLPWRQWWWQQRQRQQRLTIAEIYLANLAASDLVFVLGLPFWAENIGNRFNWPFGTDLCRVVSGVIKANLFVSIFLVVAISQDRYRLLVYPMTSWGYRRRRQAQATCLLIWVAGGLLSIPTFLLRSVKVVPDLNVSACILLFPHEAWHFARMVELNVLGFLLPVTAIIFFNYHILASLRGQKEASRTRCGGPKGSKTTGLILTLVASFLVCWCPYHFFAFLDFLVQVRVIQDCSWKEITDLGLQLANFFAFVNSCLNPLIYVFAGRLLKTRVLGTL
Kind of experiment: Functional study on the bradykinin receptor 1 (B1R), rat: FLIPR Ca2+ influx assay. The settings on record: test substance 10 μM; CHO K1 cells transfected with rat B1R; Des-Arg9-bradykinin at EC80; Ca2+ influx (Fluo-4, FLIPR); read-out: B1R antagonism, rat [10 μM] % inhibition. Format: cell-based.
Description: as §1, §2, §3, §4, §5, §6, §7, §8

For the compound `CN(C)C(c1cccc(F)c1)C1CCC(NC(=O)CC2c3ccccc3CCN2S(=O)(=O)c2ccc(Cl)c(Cl)c2)CC1` (stereo not shown) [Example 26, 2-(2-(3,4-dichlorophenylsulfonyl)-1,2,3,4-tetrahydroisoquinolin-1-yl)-N-(4-((dimethylamino)(3-fluorophenyl)methyl)cyclohexyl)acetamide], the inhibition at 10 µM in experiment [1] amounted to 97.4%; in experiment [2], 73%.

Consider `CN(C)C(c1ccc(F)cc1)C1CCC(NC(=O)CC2c3ccccc3CCN2S(=O)(=O)c2ccc(Cl)c(Cl)c2)CC1` (stereo not shown) [Example 27, 2-(2-(3,4-dichlorophenylsulfonyl)-1,2,3,4-tetrahydroisoquinolin-1-yl)-N-(4-((dimethylamino)(4-fluorophenyl)methyl)cyclohexyl)acetamide], for which the inhibition at 10 µM in experiment [1] stood at 103%; in experiment [2] it was 78%.

Consider `CN(C)C(c1cccc(F)c1)C1CCC(CNC(=O)CC2c3ccccc3CCN2S(=O)(=O)c2ccc(Cl)c(Cl)c2)CC1` (stereo not shown) [Example 28, 2-[2-(3,4-dichloro-benzenesulfonyl)-1,2,3,4-tetrahydro-isoquinolin-1-yl]-N-{4-[dimethylamino-(3-fluoro-phenyl)-methyl]-cyclohexylmethyl}-acetamide], for which the values for the inhibition at 10 µM in experiment [1] and in experiment [2] were 26.3% and 34%, respectively.

`CN(C)C(c1ccccc1)C1CCC(CNC(=O)CC2c3ccccc3CCN2S(=O)(=O)c2ccc(Cl)c(Cl)c2)CC1` (stereo not shown) [Example 29, 2-[2-(3,4-dichloro-benzenesulfonyl)-1,2,3,4-tetrahydro-isoquinolin-1-yl]-N-[4-(dimethylamino-phenyl-methyl)-cyclohexylmethyl]-acetamide]: the results for the inhibition at 10 µM in experiment [1] and in experiment [2] were 64.5% and 45%, respectively.

On to `CN(C)C(CCc1ccccc1)C1CCC(CNC(=O)CC2c3ccccc3CCN2S(=O)(=O)c2ccc(Cl)c(Cl)c2)CC1` (stereo not shown) [Example 30, 2-[2-(3,4-dichloro-benzenesulfonyl)-1,2,3,4-tetrahydro-isoquinolin-1-yl]-N-[4-(1-dimethylamino-3-phenyl-propyl)-cyclohexylmethyl]-acetamide], for which the inhibition at 10 µM in experiment [1] is 75.7%; in experiment [2], 58%.

Consider `CN(C)C(c1ccc(F)cc1)C1CCC(CNC(=O)CC2c3ccccc3CCN2S(=O)(=O)c2ccc(Cl)c(Cl)c2)CC1` (stereo not shown) [Example 31, 2-[2-(3,4-dichloro-benzenesulfonyl)-1,2,3,4-tetrahydro-isoquinolin-1-yl]-N-{4-[dimethylamino-(4-fluoro-phenyl)-methyl]-cyclohexylmethyl}-acetamide], for which the inhibition at 10 µM was found to be 54% in experiment [1] and 48% in experiment [2].

For `CN(C)C(c1ccc(Cl)cc1)C1CCC(CNC(=O)CC2c3ccccc3CCN2S(=O)(=O)c2ccc(Cl)c(Cl)c2)CC1` (stereo not shown) [Example 32, N-{4-[(4-chloro-phenyl)-dimethylamino-methyl]-cyclohexylmethyl}-2-[2-(3,4-dichloro-benzenesulfonyl)-1,2,3,4-tetrahydro-isoquinolin-1-yl]-acetamide], the values for the inhibition at 10 µM in experiment [1] and in experiment [2] were 10.7% and 15%, respectively.

For `CN(C)C(c1ccc(Cl)cc1)C1CCC(CCNC(=O)CC2c3ccccc3CCN2S(=O)(=O)c2ccc(Cl)c(Cl)c2)CC1` (stereo not shown) [Example 33, N-(2-{4-[(4-chloro-phenyl)-dimethylamino-methyl]-cyclohexyl}-ethyl)-2-[2-(3,4-dichloro-benzenesulfonyl)-1,2,3,4-tetrahydro-isoquinolin-1-yl]-acetamide], the inhibition at 10 µM in experiment [1] was 42.2%; in experiment [2], 18%.

On to `CN(C)C(c1cccc(F)c1)C1CCC(CCNC(=O)CC2c3ccccc3CCN2S(=O)(=O)c2ccc(Cl)c(Cl)c2)CC1` (stereo not shown) [Example 34, 2-[2-(3,4-dichloro-benzenesulfonyl)-1,2,3,4-tetrahydro-isoquinolin-1-yl]-N-(2-{4-[dimethylamino-(3-fluoro-phenyl)-methyl]-cyclohexyl}-ethyl)-acetamide], for which the inhibition at 10 µM in experiment [1] came to 71.2%; in experiment [2], 41%.

`CN(C)C(c1ccc(F)cc1)C1CCC(CCNC(=O)CC2c3ccccc3CCN2S(=O)(=O)c2ccc(Cl)c(Cl)c2)CC1` (stereo not shown) [Example 35, 2-[2-(3,4-dichloro-benzenesulfonyl)-1,2,3,4-tetrahydro-isoquinolin-1-yl]-N-(2-{4-[dimethylamino-(4-fluoro-phenyl)-methyl]-cyclohexyl}-ethyl)-acetamide]: the inhibition at 10 µM in experiment [1] was 79.5%; in experiment [2] it was 49%.

As to `CN(C)C(c1cccc(F)c1)C1CCC(NC(=O)c2ccccc2N(C)S(=O)(=O)c2ccc(Cl)c(Cl)c2)CC1` (stereo not shown) [Example 36, 2-[(3,4-dichloro-benzenesulfonyl)-methyl-amino]-N-{4-[dimethylamino-(3-fluoro-phenyl)-methyl]-cyclohexyl}-benzamide], the values for the inhibition at 10 µM in experiment [1] and in experiment [2] were 64.1% and 67%, respectively.

Consider `CN(C)C(c1ccc(F)cc1)C1CCC(NC(=O)c2ccccc2N(C)S(=O)(=O)c2ccc(Cl)c(Cl)c2)CC1` (stereo not shown) [Example 37, 2-[(3,4-dichloro-benzenesulfonyl)-methyl-amino]-N-{4-[dimethylamino-(4-fluoro-phenyl)-methyl]-cyclohexyl}-benzamide], for which the inhibition at 10 µM in experiment [1] stood at 82.2%; in experiment [2] it was 64%.

Consider `CN(C)C(c1ccccc1)C1CCC(CNC(=O)c2ccccc2N(C)S(=O)(=O)c2ccc(Cl)c(Cl)c2)CC1` (stereo not shown) [Example 38, 2-[(3,4-dichloro-benzenesulfonyl)-methyl-amino]-N-[4-(dimethylamino-phenylmethyl)-cyclohexylmethyl]-benzamide], for which the inhibition at 10 µM worked out at 17.9% in experiment [1] and 15% in experiment [2].

For `CN(C)C(CCc1ccccc1)C1CCC(CNC(=O)c2ccccc2N(C)S(=O)(=O)c2ccc(Cl)c(Cl)c2)CC1` (stereo not shown) [Example 39, 2-[(3,4-dichloro-benzenesulfonyl)-methyl-amino]-N-[4-(1-dimethylamino-3-phenyl-propyl)-cyclohexylmethyl]-benzamide], the results for the inhibition at 10 µM in experiment [1] and in experiment [2] were 79.3% and 42%, respectively.
